Converted amounts (≈) assume the structure as drawn.
Legend:
[1] = test system: Candida albicans; experiment: Antifungal activity against Candida albicans CPCC 400616 assessed as inhibition of fungal growth by microdilution method; type: functional
[2] = test system: Candida albicans; experiment: Antifungal activity against Candida albicans ATCC SC5314 assessed as inhibition of fungal growth by microdilution method; type: functional
[3] = test system: Nakaseomyces glabratus; experiment: Antifungal activity against clinical isolate Candida glabrata assessed as inhibition of fungal growth by microdilution method; type: functional
[4] = test system: Candida parapsilosis; experiment: Antifungal activity against Candida parapsilosis 22019 assessed as inhibition of fungal growth by microdilution method; type: functional; conditions: Lodderomyces parapsilosis
[5] = test system: Pichia kudriavzevii; experiment: Antifungal activity against Candida krusei AS 2.1045 assessed as inhibition of fungal growth by microdilution method; type: functional
[6] = test system: Candida tropicalis; experiment: Antifungal activity against Candida tropicalis CGMCC 2.3739 assessed as inhibition of fungal growth by microdilution method; type: functional
[7] = test system: Cryptococcus neoformans; experiment: Antifungal activity against Cryptococcus neoformans CGMCC 2.3161 assessed as inhibition of fungal growth by microdilution method; type: functional
[8] = test system: Aspergillus fumigatus; experiment: Antifungal activity against Aspergillus fumigatus CGMCC 3.7795 assessed as inhibition of fungal growth by microdilution method; type: functional
[9] = target: T1, Lanosterol 14-alpha demethylase (Candida albicans (strain SC5314 / ATCC MYA-2876) (Yeast), UniProt P10613); experiment: Inhibition of CYP51 in Candida albicans SC5314 assessed as ergosterol level at 1 ug/ml by GC-MS analysis (reference value: 98.3 %); parameters: scale not given: the % may be the effect or the level left; conditions: at 1 µg/mL
T1 sequence (P10613 whole entry): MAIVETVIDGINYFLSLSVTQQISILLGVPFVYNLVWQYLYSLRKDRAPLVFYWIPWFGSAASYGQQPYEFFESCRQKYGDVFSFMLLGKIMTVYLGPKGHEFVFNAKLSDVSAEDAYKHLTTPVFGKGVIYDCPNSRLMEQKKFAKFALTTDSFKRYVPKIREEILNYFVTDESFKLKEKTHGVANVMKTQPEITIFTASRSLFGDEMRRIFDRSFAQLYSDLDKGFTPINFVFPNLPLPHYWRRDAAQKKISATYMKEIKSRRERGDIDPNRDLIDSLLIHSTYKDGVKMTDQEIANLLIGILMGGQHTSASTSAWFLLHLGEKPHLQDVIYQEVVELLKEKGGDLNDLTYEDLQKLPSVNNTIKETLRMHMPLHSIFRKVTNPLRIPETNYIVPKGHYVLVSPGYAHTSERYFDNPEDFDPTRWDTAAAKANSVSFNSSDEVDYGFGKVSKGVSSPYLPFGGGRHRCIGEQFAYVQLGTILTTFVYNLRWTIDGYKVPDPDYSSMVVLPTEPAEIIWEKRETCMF

[10] = target: T1, Lanosterol 14-alpha demethylase; experiment: Inhibition of CYP51 in Candida albicans SC5314 assessed as ergosterol level at 2 ug/ml by GC-MS analysis (reference value: 98.3 %); parameters: scale not given: the % may be the effect or the level left; conditions: at 2 µg/mL
[11] = target: T1, Lanosterol 14-alpha demethylase; experiment: Inhibition of CYP51 in Candida albicans SC5314 assessed as ergosterol level at 4 ug/ml by GC-MS analysis (reference value: 98.3 %); parameters: scale not given: the % may be the effect or the level left; conditions: at 4 µg/mL
[12] = target: T1, Lanosterol 14-alpha demethylase; experiment: Inhibition of CYP51 in Candida albicans SC5314 assessed as ergosterol level at 8 ug/ml by GC-MS analysis (reference value: 98.3 %); parameters: scale not given: the % may be the effect or the level left; conditions: at 8 µg/mL
[13] = target: T1, Lanosterol 14-alpha demethylase; experiment: Inhibition of CYP51 in Candida albicans SC5314 assessed as obtusifoliol level at 1 ug/ml by GC-MS analysis (reference value: 0 %); parameters: scale not given: the % may be the effect or the level left; conditions: at 1 µg/mL
[14] = target: T1, Lanosterol 14-alpha demethylase; experiment: Inhibition of CYP51 in Candida albicans SC5314 assessed as obtusifoliol level at 2 ug/ml by GC-MS analysis (reference value: 0 %); parameters: scale not given: the % may be the effect or the level left; conditions: at 2 µg/mL
[15] = target: T1, Lanosterol 14-alpha demethylase; experiment: Inhibition of CYP51 in Candida albicans SC5314 assessed as obtusifoliol level at 4 ug/ml by GC-MS analysis (reference value: 0 %); parameters: scale not given: the % may be the effect or the level left; conditions: at 4 µg/mL
[16] = target: T1, Lanosterol 14-alpha demethylase; experiment: Inhibition of CYP51 in Candida albicans SC5314 assessed as obtusifoliol level at 8 ug/ml by GC-MS analysis (reference value: 0 %); parameters: scale not given: the % may be the effect or the level left; conditions: at 8 µg/mL
[17] = target: T1, Lanosterol 14-alpha demethylase; experiment: Inhibition of CYP51 in Candida albicans SC5314 assessed as lanosterol level at 1 ug/ml by GC-MS analysis (reference value: 1.7 %); parameters: scale not given: the % may be the effect or the level left; conditions: at 1 µg/mL
[18] = target: T1, Lanosterol 14-alpha demethylase; experiment: Inhibition of CYP51 in Candida albicans SC5314 assessed as lanosterol level at 2 ug/ml by GC-MS analysis (reference value: 1.7 %); parameters: scale not given: the % may be the effect or the level left; conditions: at 2 µg/mL
[19] = target: T1, Lanosterol 14-alpha demethylase; experiment: Inhibition of CYP51 in Candida albicans SC5314 assessed as lanosterol level at 4 ug/ml by GC-MS analysis (reference value: 1.7 %); parameters: scale not given: the % may be the effect or the level left; conditions: at 4 µg/mL
[20] = target: T1, Lanosterol 14-alpha demethylase; experiment: Inhibition of CYP51 in Candida albicans SC5314 assessed as lanosterol level at 8 ug/ml by GC-MS analysis (reference value: 1.7 %); parameters: scale not given: the % may be the effect or the level left; conditions: at 8 µg/mL
[21] = target: T1, Lanosterol 14-alpha demethylase; experiment: Inhibition of CYP51 in Candida albicans SC5314 assessed as eburicol level at 1 ug/ml by GC-MS analysis (reference value: 0 %); parameters: scale not given: the % may be the effect or the level left; conditions: at 1 µg/mL
[22] = target: T1, Lanosterol 14-alpha demethylase; experiment: Inhibition of CYP51 in Candida albicans SC5314 assessed as eburicol level at 2 ug/ml by GC-MS analysis (reference value: 0 %); parameters: scale not given: the % may be the effect or the level left; conditions: at 2 µg/mL
[23] = target: T1, Lanosterol 14-alpha demethylase; experiment: Inhibition of CYP51 in Candida albicans SC5314 assessed as eburicol level at 4 ug/ml by GC-MS analysis (reference value: 0 %); parameters: scale not given: the % may be the effect or the level left; conditions: at 4 µg/mL
[24] = target: T1, Lanosterol 14-alpha demethylase; experiment: Inhibition of CYP51 in Candida albicans SC5314 assessed as eburicol level at 8 ug/ml by GC-MS analysis (reference value: 0 %); parameters: scale not given: the % may be the effect or the level left; conditions: at 8 µg/mL
[25] = test system: HL-60; experiment: Cytotoxicity against human HL-60 cells assessed as inhibition of cell growth by MTT assay; type: functional, cell-based
[26] = test system: MDA-MB-231; experiment: Cytotoxicity against human MDA-MB-231 cells assessed as inhibition of cell growth by MTT assay; type: functional, cell-based
[27] = test system: PC-3; experiment: Cytotoxicity against human PC-3 cells assessed as inhibition of cell growth by MTT assay; type: functional, cell-based
[28] = test system: Candida albicans; experiment: Antifungal activity against Candida albicans CPCC 400616 assessed as inhibition of fungal growth; type: functional
[29] = test system: Candida albicans; experiment: Antifungal activity against Candida albicans ATCC SC5314 assessed as inhibition of fungal growth; type: functional

Structure (SMILES) | MIC [1] [µg/mL] | MIC [2] [µg/mL] | MIC [3] [µg/mL] | MIC [4] [µg/mL] | MIC [5] [µg/mL] | MIC [6] [µg/mL] | MIC [7] [µg/mL] | MIC [8] [µg/mL] | also measured
OC(C[Se]Cc1ccccc1Cl)(Cn1cncn1)c1ccc(F)cc1F (stereo not given) | 0.125 | 0.02 | 0.5 | 0.125 | 0.125 | 0.25 | 0.25 | 2 | –
Cc1cccc(C)c1[Se]CC(O)(Cn1cncn1)c1ccc(F)cc1F (stereo not given) | 0.06 | 0.5 | 1 | 0.25 | 0.125 | 1 | 0.25 | 4 | –
OC(C[Se]c1ccc(F)cc1)(Cn1cncn1)c1ccc(F)cc1F (stereo not given) | 0.25 | 0.125 | 4 | 0.125 | 2 | 0.5 | 0.25 | 4 | –
Cc1cc(C)cc([Se]CC(O)(Cn2cncn2)c2ccc(F)cc2F)c1 (stereo not given) | 0.06 | 0.03 | 4 | 0.25 | 2 | 0.06 | 0.03 | 8 | –
Cc1cccc([Se]CC(O)(Cn2cncn2)c2ccc(F)cc2F)c1 (stereo not given) | 0.25 | 0.125 | 2 | 0.5 | 0.5 | 1 | 0.5 | 8 | –
Cc1cccc(C[Se]CC(O)(Cn2cncn2)c2ccc(F)cc2F)c1 (stereo not given) | 0.125 | 0.06 | 4 | 0.25 | 2 | 1 | 1 | 4 | –
COc1ccc([Se]CC(O)(Cn2cncn2)c2ccc(F)cc2F)cc1 (stereo not given) | 0.25 | 0.02 | 0.5 | 0.125 | 0.5 | 0.125 | 0.03 | 16 | Activity [9]: 4.3%; Activity [10]: 3.6%; Activity [11]: 1.4%; Activity [12]: 0.38%; Activity [13]: 10.1%; Activity [14]: 10.8%; Activity [15]: 11.2%; Activity [16]: 11.8%; Activity [17]: 18.4%; Activity [18]: 18.2%; Activity [19]: 19.1%; Activity [20]: 19.3%; Activity [21]: 64.3%; Activity [22]: 64.7%; Activity [23]: 64.5%; Activity [24]: 65.7%; IC50 [25]: 12.1 µM; IC50 [26]: 18.8 µM; IC50 [27]: 26.7 µM
Cc1ccccc1[Se]CC(O)(Cn1cncn1)c1ccc(F)cc1F (stereo not given) | 1 | 0.03 | 0.5 | 0.125 | 0.5 | 1 | 0.25 | 16 | –
CCc1ccccc1[Se]CC(O)(Cn1cncn1)c1ccc(F)cc1F (stereo not given) | 0.25 | 0.5 | 1 | 0.25 | 1 | 2 | 0.5 | 4 | –
CCc1ccc([Se]CC(O)(Cn2cncn2)c2ccc(F)cc2F)cc1 (stereo not given) | 1 | 0.5 | 4 | 0.5 | 2 | 2 | 1 | 4 | –
Cc1ccc(C)c([Se]CC(O)(Cn2cncn2)c2ccc(F)cc2F)c1 (stereo not given) | 1 | 1 | 2 | 0.5 | 1 | 0.5 | 0.25 | 2 | –
Cc1ccccc1[Se]C(Cn1ccnc1)c1ccc(Cl)cc1 (stereo not given) | – | – | – | – | – | – | – | – | MFC [28]: 0.25 µg/mL (≈ 0.665 µM); MIC [28]: 0.02 µg/mL (≈ 0.0532 µM); MIC [29]: 0.03 µg/mL (≈ 0.0798 µM)
OC(C[Se]Cc1ccc(C(F)(F)F)cc1)(Cn1cncn1)c1ccc(F)cc1F (stereo not given) | 0.03 | 0.03 | 4 | 0.25 | 2 | 0.5 | 0.5 | 4 | –
OC(C[Se]Cc1cccc(F)c1)(Cn1cncn1)c1ccc(F)cc1F (stereo not given) | 0.06 | 0.03 | 2 | 0.25 | 1 | 0.25 | 2 | 2 | –
Cc1ccc(C[Se]CC(O)(Cn2cncn2)c2ccc(F)cc2F)cc1 (stereo not given) | 0.125 | 0.06 | 2 | 0.25 | 2 | 1 | 1 | 2 | –
COc1cccc(C[Se]CC(O)(Cn2cncn2)c2ccc(F)cc2F)c1 (stereo not given) | 0.25 | 0.125 | 4 | 0.25 | 8 | 4 | 2 | 4 | –
OC(C[Se]Cc1ccc(F)cc1)(Cn1cncn1)c1ccc(F)cc1F (stereo not given) | 0.06 | 0.03 | 1 | 0.25 | 1 | 0.5 | 2 | 2 | –
COc1cccc([Se]CC(O)(Cn2cncn2)c2ccc(F)cc2F)c1 (stereo not given) | 0.5 | 0.02 | 4 | 0.125 | 2 | 2 | 1 | 8 | –
COc1cccc2c1C(=O)c1c(O)c3c(c(O)c1C2=O)C[C@@](O)(C(=O)CO)C[C@@H]3O[C@H]1C[C@H](N)[C@H](O)[C@H](C)O1 [DOXORUBICIN] | – | – | – | – | – | – | – | – | IC50 [25]: < 0.125 µM
OC(Cn1cncn1)(Cn1cncn1)c1ccc(F)cc1F [FLUCONAZOLE] | – | – | – | – | – | 4 | – | – | Activity [9]: 3.9%; Activity [10]: 2.5%; Activity [11]: 1.5%; Activity [12]: 1.1%; Activity [13]: 13.9%; Activity [14]: 13.1%; Activity [15]: 13.5%; Activity [16]: 14.1%; Activity [17]: 14.3%; Activity [18]: 15.7%; Activity [19]: 15.4%; Activity [20]: 14.9%; Activity [21]: 67.9%; Activity [22]: 68.7%; Activity [23]: 69.6%; Activity [24]: 69.9%; IC50 [25]: 11.6 µM; IC50 [26]: 19.2 µM; IC50 [27]: 16.5 µM
Clc1ccc(COC(Cn2ccnc2)c2ccc(Cl)cc2Cl)c(Cl)c1 (stereo not given) [MICONAZOLE] | – | – | – | – | – | 1 | – | – | –

From ChEMBL document CHEMBL5236585, “Design, synthesis and antifungal activities of novel triazole derivatives with selenium-containing hydrophobic side chains” (Bioorg Med Chem Lett, 2022)
